The source of these data is article PMC7901650, “Garcinoic Acid Is a Natural and Selective Agonist of Pregnane X Receptor” (Journal of Medicinal Chemistry, 2020).

One series has as its system RXR. As to the kind of experiment: AlphaScreen nuclear receptor panel, RXR. It is filed as biochemical, human. From the text:
Ligand binding activity of GA (1) was explored via AlphaScreen technology over a panel of NRs that, along with hPXR (Figure 1A), included major human endocrine and metabolic receptors, such as the retinoid X receptor (RXR), constitutive androstane receptor (CAR), farnesoid X receptor (FXR), vitamin D receptor (VDR), liver X receptor (LXR) forms α and β, and the PPAR isoforms α, δ, and γ (see Figure S1). GA (1) was compared to its analogue δ-tocotrienol (5), the vitamers 3 and 4, their short-chain metabolites (SCMs) α-CEHC (10) and γ-CEHC (11), and the LCMs 2 and 8 (Chart 1). The test was performed in the presence of reference standard agonists for the different NRs.
The activity of nuclear receptors was determined using AlphaScreen technology, a recruitment coactivator assay previously described.[56]
(A) The test was carried out at 10 μM compound final concentration. Ligand binding to nuclear receptors was expressed as luminescence units. […] Vehicle was assessed to obtain a measure of background signal (basal evaluation). […] In presence of the ligand, the nuclear receptor LBD undergoes conformational changes, binds to the coactivator and the chemical energy is transferred from donor to acceptor beads in order to produce a signal, i.e. luminescence; in this case the compounds behaves as agonist, changing the conformation of the receptor to recruit the coactivator. […]

Another series has as its system HepG2 cells. In words: PXR, CYP3A4 and MDR1 expression in HepG2 cells. Format: cell-based. The procedure: HepG2 (human hepatoma cell line; ATCC HB-8065, Manassas, VA) and HepaRG (HPRGC10, Thermo Fisher Scientific) cells were maintained in culture as previously described.[47] Experiments were performed between passages 2 and 10. Cell viability, clonogenic activity, and apoptotic cell death were assessed as previously described (see Figure S2).[58],[59] HT29 human colorectal adenocarcinoma cells (ATCC HTB-38) and its mucous-secreting HT29-MTX subclone (Sigma-Aldrich) were used as intestinal cell models. HT29 cells were cultured in RPMI (Invitrogen; Life Technologies) containing 10% FBS (v/v) and 1% (v/v) L-glutamine. HT29-MTX cells (from Sigma-Aldrich) were cultured in DMEM supplemented with 2 mM glutamine, 1% nonessential amino acids, and 10% FBS. Cells were maintained at 37 C in a humidified 5% (v/v) CO2 atmosphere chamber and were used between passages 10 and 20.
Cells were harvested and lysed in ice-cold cell lysis buffer (Cell Signaling Technology) and 20 μL/mL protease inhibitor cocktail (Roche). Murine tissues (10 mg each) were weighed and resuspended in 300 μL of PBS supplemented with NP40 (1:50) and a cocktail of protease inhibitors (Pierce, Thermo Fisher Scientific). After preliminary homogenation in a 1-mL potter, sonication was performed in ice (3 cycles of 15 s each with 1 min intervals). After incubation in ice for 1 h and centrifugation (12 000 rpm for 20 min at 4 °C), the supernatant was recovered, and total proteins were quantified by the BCA assay kit (Pierce, Thermo Fisher Scientific). […] The band intensity was analyzed using Gel Pro analyzer Software. […]
RNA was extracted using the RNeasy Plus Kit (QIAGEN, Valencia, CA) and quantified with Implen NanoPhotometer (GmbH Germany), and cDNA synthesis was carried out using SuperScript IV (Thermo Fisher Scientific, MA). […]

As for `C/C(=C\CC/C(C)=C/CC[C@]1(C)CCc2cc(O)cc(C)c2O1)CC/C=C(\C)C(=O)O` [GA (1), (2E,6E,10E)-13-[(2R)-6-hydroxy-2,8-dimethyl-chroman-2-yl]-2,6,10-trimethyltrideca-2,6,10-trienoic acid], in the series on RXR, the “Response on RXR” value was “No response”. In the series with HepG2 cells (HepG2, 1 to 50 μM), the MDR1 gene expression result was “increased in a dose–dose-dependent manner”. Also, in the series on HepG2 cells (HepG2, 24 h, 1 and 25 μM), the “CYP3A4 protein and mRNA expression” value is given as “increased in a dose–dose-dependent manner”; the PXR protein expression result is on record as “increased in a dose–dose-dependent manner”.
